Entries after “also recorded” stand apart in the source; their conditions may differ.
Assays:
[1] = tested on: P. falciparum asexual blood stage parasites (strains NF54, D6, K1, W2, 7G8, TM90C2A, V1/S); assay: [3H]-hypoxanthine incorporation growth inhibition assay, asexual blood stage; format: cell-based, Plasmodium falciparum; conditions: Plasmodium falciparum
[2] = tested on: P. falciparum oocyst formation; assay: Standard membrane feed assay, P. falciparum oocysts in A. stephensi; format: in vivo, Plasmodium falciparum; conditions: 10 µM, gametocytes exposed 24 h before feeding
Procedure: (§1) Gametocyte cultures were produced according to the same protocol as the Pf exflagellation assay. Pooled gametocyte cultures were evenly divided between compounds in fresh medium and incubated at 37°C for 24 h. The parasite pellets were then resuspended in fresh RBCs and human serum treated with the compounds to a 50% haematocrit and immediately fed to mosquitoes as described above and then maintained at 27°C/60%RH for 10–12 d before dissection and counting.
Figure 3 The transmission-blocking potential of selected antimalarials in three bioassays that cover different phases of Plasmodium vector stage development. (A) Assays examined exflagellation (P. falciparum), ookinete formation (P. berghei), or oocyst formation (P. falciparum). All antimalarials were screened at 10 µM. (B) The biological content of the in vitro P. berghei ookinete assay spans gamete formation, fertilization, zygote development, and ookinete formation. Ookinete formation was insensitive to most of the antimalarials tested. […] (D) The in vitro P. falciparum exflagellation assay exposes mature gametocytes to antimalarials for 24 h before triggering exflagellation. […] All experiments in triplicate. (E) The in vivo P. falciparum oocyst assay differs from the P. berghei oocyst assay in that mature gametocytes were exposed to the antimalarials in culture for 24 h before feeding to mosquitoes. […] NPC1161-B, lumefantrine, halofantrine, and mefloquine +RS isomer were also active. (n = 4–61 observations; average ± standard error of the mean [SEM]).

[3] = tested on: P. berghei oocyst formation; assay: Standard membrane feed assay, P. berghei oocysts in A. stephensi; format: in vivo, Plasmodium berghei; conditions: for transmission-blocking effect on P. berghei oocysts (words): 10 µM
Procedure: (§2) Membrane feeds were performed as described previously. Briefly, PbGFPcon-infected mouse blood was mixed with compounds, immediately placed into membrane feeders (39°C) and offered for 30 min to 80–100 overnight-starved A. stephensi (SDA 500 strain). After 7–9 d at 19°C/80%RH, mosquito midguts were dissected out. Midguts were fixed with paraformaldehyde and oocyst number was determined microscopically by semi-automated analysis as previously described.
Supplementary file pmed.1001169.s001.tif: Figure S1 The transmission-blocking potential of selected compounds against P. berghei in standard membrane feeding assays. All antimalarials were screened at 10 µM in triplicate in independent experiments. The biological content of this assay spans gamete formation through to occyst development all within the gut of the mosquito. […] (TIF) Click here for additional data file.

HepG2 cells = assay: Growth retardation of HepG2 cells; conditions: for IC50: Homo sapiens, HepG2, read-out: IC50 HepG2
Plasmodium oocysts = assay: Oocyst development / sporogony, Plasmodium species not stated at the place; format: in vivo; conditions: for inhibition at 10 µM: Plasmodium, box linked to oocysts, read-out: Inhibition at 10 μM (oocysts, Figure 5)
Procedure: as §2
as §1, with “counting. […]” for “counting.”

## COc1cc(N[C@H](C)CCCN)c2nccc(C)c2c1Oc1ccc(Cl)c(Cl)c1 [NPC-1161B]
[1]; strain 7G8
  IC50: ~0.05 µM
[1]; strain NF54
  IC50: ~0.5 µM
[2]
  transmission-blocking effect on P. falciparum oocysts (words): totally blocked transmission
[2]; listed as NPC1161-B
  transmission-blocking effect on P. falciparum oocysts (words): active; also recorded: showed potency
[3]
  transmission-blocking effect on P. berghei oocysts (words): most notable transmission-blocking activity; also recorded: showed potency
[3]; Plasmodium berghei
  inhibition at 10 µM: > 90%
HepG2 cells
  IC50: 0.84 ± 0.46 µM
HepG2 cells; IC50 HepG2 compared to IC50 parasite
  CI (cytotoxicity index): 1.17
Plasmodium oocysts
  inhibition at 10 µM: > 90%
Plasmodium oocysts; species not given
  effect on sporogony / oocyst production: inhibits sporogony; also recorded: inhibit exflagellation in vitro and oocyst production in the mosquito vector; also recorded: inhibited both exflagellation and oocyst production

## CCCCN(CCCC)CCC(O)c1cc2c(Cl)cc(Cl)cc2c2cc(C(F)(F)F)ccc12 (centres unmarked) [halofantrine]
[1]
  IC50: < 0.004 µM
[1]; multi-drug-resistant strains K1, W2 and 7G8
  IC50: 0.0003 µM
[2]
  transmission-blocking effect on P. falciparum oocysts (words): active; also recorded: impaired sporogony
[3]
  transmission-blocking effect on P. berghei oocysts (words): impaired sporogony
HepG2 cells
  IC50: < 5.66 µM
HepG2 cells; human, 48 h
  CI (cytotoxicity index): <2.44
Plasmodium oocysts
  inhibition at 10 µM: > 90%
